Values joined by “and” are separate entries in the source; they are usually repeats but may differ in a detail not shown here. Equal values may be shown once. Toxic doses and inconclusive results are not listed.

In the assay the test system is BDF1 mice, P388 leukemia ip, median survival T/C. Put plainly: NCI In Vivo Anticancer Drug Screen. Data for tumor model P388 Leukemia (intraperitoneal) in B6D2F1 (BDF1) mice. To be noted: endpoint: median survival time, higher = longer survival. In short, it runs like this:
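Compound-treated tumour-bearing mice were compared with vehicle-treated controls. Survival was recorded, and the value is the treated-group measurement divided by the control-group measurement (T/C).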

[1] abbreviates: dose: 1.0 mg/kg/injection, schedule: Q01DX009 (ip), vehicle: water.
[2] abbreviates: dose: 2.0 mg/kg/injection, schedule: Q01DX009 (ip), vehicle: water.
Where [3] appears, read: dose: 4.0 mg/kg/injection, schedule: Q01DX009 (ip), vehicle: water.
Setting [4] is: dose: 8.0 mg/kg/injection, schedule: Q01DX009 (ip), vehicle: water.
The mark [5] stands for this setting: dose: 50.0 mg/kg/injection, schedule: Q01DX009 (ip), vehicle: saline with Tween-80.
Where [6] appears, read: dose: 100.0 mg/kg/injection, schedule: Q01DX009 (ip), vehicle: saline with Tween-80.
[7] abbreviates: dose: 200.0 mg/kg/injection, schedule: Q01DX009 (ip), vehicle: saline with Tween-80.
Setting [8] is: dose: 6.25 mg/kg/injection, schedule: Q01DX009 (ip), vehicle: saline with Tween-80.
[9] abbreviates: dose: 12.5 mg/kg/injection, schedule: Q01DX009 (ip), vehicle: saline with Tween-80.
The mark [10] stands for this setting: dose: 25.0 mg/kg/injection, schedule: Q01DX009 (ip), vehicle: saline with Tween-80.
The mark [11] stands for this setting: dose: 100.0 mg/kg/injection, schedule: Q01DX009 (ip), vehicle: Klucel (hydroxypropylcellulose) (HPC).
Where [12] appears, read: dose: 100.0 mg/kg/injection, schedule: Q04DX003 (ip), vehicle: Klucel (hydroxypropylcellulose) (HPC).
[13] abbreviates: dose: 200.0 mg/kg/injection, schedule: Q01DX009 (ip), vehicle: Klucel (hydroxypropylcellulose) (HPC).
Where [14] appears, read: dose: 200.0 mg/kg/injection, schedule: Q04DX003 (ip), vehicle: Klucel (hydroxypropylcellulose) (HPC).
Setting [15] is: dose: 400.0 mg/kg/injection, schedule: Q01DX009 (ip), vehicle: Klucel (hydroxypropylcellulose) (HPC).
The mark [16] stands for this setting: dose: 400.0 mg/kg/injection, schedule: Q04DX003 (ip), vehicle: Klucel (hydroxypropylcellulose) (HPC).
[17] abbreviates: dose: 100.0 mg/kg/injection, schedule: Q01DX001 (ip), vehicle: saline with Tween-80.
Where [18] appears, read: dose: 200.0 mg/kg/injection, schedule: Q01DX001 (ip), vehicle: saline with Tween-80.
[19] abbreviates: dose: 400.0 mg/kg/injection, schedule: Q01DX001 (ip), vehicle: saline with Tween-80.
Where [20] appears, read: dose: 400.0 mg/kg/injection, schedule: Q01DX009 (ip), vehicle: saline with Tween-80.
Setting [21] is: dose: 100.0 mg/kg/injection, schedule: Q04DX003 (ip), vehicle: saline with Tween-80.

Consider `CC[n+]1ccc(Nc2ccc(NC(=O)c3ccc(Nc4cc[n+](CC)c5ccc(N)cc45)cc3)cc2)cc1`, for which the T/C runs as follows: (dose: 0.02 mg/kg/injection, schedule: Q01DX010 (ip), vehicle: saline) 115 % of control; (dose: 0.1 mg/kg/injection, schedule: Q01DX010 (ip), vehicle: saline) 110 % of control; (dose: 0.5 mg/kg/injection, schedule: Q01DX009 (ip), vehicle: water) 154 % of control; (dose: 0.5 mg/kg/injection, schedule: Q01DX010 (ip), vehicle: saline) 170 % of control; under setting [1], 158 % of control; (dose: 1.0 mg/kg/injection, schedule: Q01DX010 (ip), vehicle: saline) 195 % of control. In addition, the T/C reads like this: under setting [2], 212 % of control; (dose: 2.0 mg/kg/injection, schedule: Q01DX010 (ip), vehicle: saline) 275 % of control; under setting [3], 250 % of control; (dose: 4.0 mg/kg/injection, schedule: Q01DX010 (ip), vehicle: saline) 120 % of control; under setting [4], 116 % of control; (dose: 8.0 mg/kg/injection, schedule: Q01DX010 (ip), vehicle: saline) 100 % of control.
Take `CN(C)CC(C(=O)Cc1ccccc1)c1ccccc1` (stereo not drawn): the T/C was 102 % of control under setting [5] and 111 % of control under setting [6].
Take `COC(=O)C1(C)CCCC2(C)C1CCC13C=C(C(C)C)C(CC1C(=O)O)CC23` (stereo not drawn): the T/C by setting is: under setting [5], 95 % of control; under setting [6], 91 % of control; under setting [7], 95 % of control.
Consider `C=C(Cl)COC1CCS(=O)(=O)C1` (stereo not drawn), for which the T/C runs as follows: under setting [8], 90 % of control; under setting [9], 90 % of control; under setting [10], 93 % of control.
With `Cc1ccc(C)c(Nc2cc(=O)[nH]c(=O)[nH]2)c1`, the T/C (dose: 100.0 mg/kg/injection, schedule: Q01DX001 (ip), vehicle: Klucel (hydroxypropylcellulose) (HPC)) was 98 % of control and the T/C (dose: 200.0 mg/kg/injection, schedule: Q01DX001 (ip), vehicle: Klucel (hydroxypropylcellulose) (HPC)) is 103 % of control.
For `O=c1[nH]ncc2[nH]cnc12`, the T/C was 98 % of control under setting [8], 107 % of control under setting [9], 91 % of control under setting [10] and 104 % of control under setting [5].
For the molecule `CCOC(=O)NC(=S)n1ncnc1N`, the T/C is, setting by setting: (dose: 8.75 mg/kg/injection, schedule: Q01DX009 (ip), vehicle: saline) 95 % of control; (dose: 12.5 mg/kg/injection, schedule: Q04DX003 (ip), vehicle: Klucel (hydroxypropylcellulose) (HPC)) 110 % of control; (dose: 17.5 mg/kg/injection, schedule: Q01DX009 (ip), vehicle: saline) 105 % of control; (dose: 25.0 mg/kg/injection, schedule: Q04DX003 (ip), vehicle: Klucel (hydroxypropylcellulose) (HPC)) 100 % of control; (dose: 35.0 mg/kg/injection, schedule: Q01DX009 (ip), vehicle: saline) 90 % of control; (dose: 50.0 mg/kg/injection, schedule: Q04DX003 (ip), vehicle: Klucel (hydroxypropylcellulose) (HPC)) 100 % of control.
As for `CCCCCCCCCCCCCC(C)NCc1ccccc1` (stereo not drawn), the T/C is 95 % of control (dose: 3.13 mg/kg/injection, schedule: Q01DX009 (ip), vehicle: saline with Tween-80); 100 % of control under setting [8]; 100 % of control under setting [9].
For `Cc1c([N+](=O)[O-])c(C)c([N+](=O)[O-])c(C(C)(C)C)c1[N+](=O)[O-]`, the T/C under setting [11] is 100 % of control; the T/C under setting [12] is 87 % of control; the T/C under setting [13] was 87 % of control; the T/C under setting [14] was 87 % of control; the T/C under setting [15] was 95 % of control; the T/C under setting [16] is 91 % of control.
For the molecule `O=S(=O)(Nc1cc(Cl)c(NS(=O)(=O)c2ccccc2)cc1Cl)c1ccccc1`, the T/C under setting [17] is 95 % of control, the T/C under setting [18] is 90 % of control and the T/C under setting [19] was 86 % of control.
Turning to `O=C(CCl)Oc1ccc(-c2ccccc2)cc1Br`, the T/C is, setting by setting: under setting [5], 105 % of control; under setting [6], 102 % of control; under setting [7], 103 % of control; under setting [20], 88 % of control.
As to `COc1cccc2c1C(=O)c1c(O)c3c(c(O)c1C2=O)C[C@@](O)(/C(C)=N/NC(=O)c1ccc(O)cc1)C[C@@H]3OC1CC(N)C(O)C(C)O1` (stereo partly drawn), the T/C by setting is: (dose: 0.25 mg/kg/injection, schedule: Q01DX009 (ip), vehicle: water) 120 % of control; under setting [1], 164 % of control and 223 % of control; under setting [2], 156 % of control and 207 % of control; under setting [3], 224 % of control and 225 % of control; under setting [4], 245 % of control.
Turning to `O=c1ccc2nc3cc(Cl)ccc3sc-2c1`, the T/C reads like this: under setting [11], 109 % of control; under setting [12], 100 % of control; under setting [13], 95 % of control and 105 % of control; under setting [14], 90 % of control; under setting [15], 100 % of control; under setting [16], 90 % of control.
Consider `COc1ccc(CCNC(=O)Cc2ccc(OC)c(OC)c2)cc1OC`, for which the T/C is 100 % of control under setting [21]; 95 % of control (dose: 200.0 mg/kg/injection, schedule: Q04DX003 (ip), vehicle: saline with Tween-80); 100 % of control (dose: 400.0 mg/kg/injection, schedule: Q04DX003 (ip), vehicle: saline with Tween-80).
For `O=C(NNc1ccc([N+](=O)[O-])cc1)c1ccccc1`, the T/C by setting is: (dose: 50.0 mg/kg/injection, schedule: Q01DX009 (ip), vehicle: Klucel (hydroxypropylcellulose) (HPC)) 100 % of control; under setting [11], 90 % of control; under setting [12], 115 % of control; under setting [13], 100 % of control; under setting [14], 100 % of control; under setting [16], 95 % of control.
In the case of `[Cl][Co][Cl].[NH-]CC[NH-].[NH-]CC[NH-]`, the T/C is, setting by setting: (dose: 25.0 mg/kg/injection, schedule: Q04DX002 (ip), vehicle: saline) 100 % of control; (dose: 50.0 mg/kg/injection, schedule: Q04DX002 (ip), vehicle: saline) 109 % of control; (dose: 100.0 mg/kg/injection, schedule: Q04DX002 (ip), vehicle: saline) 104 % of control and 111 % of control.
For the molecule `CCc1n[nH]c(=O)c2c3ccccc3nn12`, the T/C under setting [17] is 96 % of control, the T/C under setting [18] is 105 % of control and the T/C under setting [19] was 100 % of control.
As for `O=C(CC(=O)Oc1ccc(Cl)cc1Cl)Oc1ccc(Cl)cc1Cl`, the T/C is 100 % of control under setting [6], 100 % of control under setting [7] and 100 % of control under setting [20].
As to `c1ccc2c(Nc3ccc(C4=NCCN4)cc3)nnc(Nc3ccc(C4=NCCN4)cc3)c2c1`, the T/C was 119 % of control (dose: 19.0 mg/kg/injection, schedule: Q04DX003 (ip), vehicle: saline with Tween-80); 115 % of control (dose: 29.0 mg/kg/injection, schedule: Q04DX003 (ip), vehicle: saline with Tween-80); 119 % of control (dose: 44.0 mg/kg/injection, schedule: Q04DX003 (ip), vehicle: saline with Tween-80); 154 % of control and 168 % of control (dose: 66.0 mg/kg/injection, schedule: Q04DX003 (ip), vehicle: saline with Tween-80); 163 % of control under setting [21]; 195 % of control (dose: 150.0 mg/kg/injection, schedule: Q04DX003 (ip), vehicle: saline with Tween-80).
Consider `CCOC(=O)c1c[nH]c2cc(C(F)(F)F)ccc2c1=O`, for which the T/C is 116 % of control (dose: 6.25 mg/kg/injection, schedule: Q01DX009 (ip), vehicle: gum acacia); 100 % of control (dose: 12.5 mg/kg/injection, schedule: Q01DX009 (ip), vehicle: gum acacia); 98 % of control (dose: 25.0 mg/kg/injection, schedule: Q01DX009 (ip), vehicle: gum acacia); 91 % of control (dose: 25.0 mg/kg/injection, schedule: Q04DX003 (ip), vehicle: gum acacia); 87 % of control (dose: 100.0 mg/kg/injection, schedule: Q04DX003 (ip), vehicle: gum acacia).

(Values after PubChem BioAssay AID328 (DTP/NCI, 2004).)
